Patent EP4685143A1 (Vivozon,Inc., priority 2023, dated 2024)

Legend:
[1] = biological target: T1, human HDAC6 enzyme (Homo sapiens, UniProt Q9UBN7); assay: Fluorescence-based enzyme activity assay; assay type: biochemical; details: substrate with fluorescent peptide of p53 residues 379-382, 30°C for 1 hour
T1 sequence (Q9UBN7 1-1215): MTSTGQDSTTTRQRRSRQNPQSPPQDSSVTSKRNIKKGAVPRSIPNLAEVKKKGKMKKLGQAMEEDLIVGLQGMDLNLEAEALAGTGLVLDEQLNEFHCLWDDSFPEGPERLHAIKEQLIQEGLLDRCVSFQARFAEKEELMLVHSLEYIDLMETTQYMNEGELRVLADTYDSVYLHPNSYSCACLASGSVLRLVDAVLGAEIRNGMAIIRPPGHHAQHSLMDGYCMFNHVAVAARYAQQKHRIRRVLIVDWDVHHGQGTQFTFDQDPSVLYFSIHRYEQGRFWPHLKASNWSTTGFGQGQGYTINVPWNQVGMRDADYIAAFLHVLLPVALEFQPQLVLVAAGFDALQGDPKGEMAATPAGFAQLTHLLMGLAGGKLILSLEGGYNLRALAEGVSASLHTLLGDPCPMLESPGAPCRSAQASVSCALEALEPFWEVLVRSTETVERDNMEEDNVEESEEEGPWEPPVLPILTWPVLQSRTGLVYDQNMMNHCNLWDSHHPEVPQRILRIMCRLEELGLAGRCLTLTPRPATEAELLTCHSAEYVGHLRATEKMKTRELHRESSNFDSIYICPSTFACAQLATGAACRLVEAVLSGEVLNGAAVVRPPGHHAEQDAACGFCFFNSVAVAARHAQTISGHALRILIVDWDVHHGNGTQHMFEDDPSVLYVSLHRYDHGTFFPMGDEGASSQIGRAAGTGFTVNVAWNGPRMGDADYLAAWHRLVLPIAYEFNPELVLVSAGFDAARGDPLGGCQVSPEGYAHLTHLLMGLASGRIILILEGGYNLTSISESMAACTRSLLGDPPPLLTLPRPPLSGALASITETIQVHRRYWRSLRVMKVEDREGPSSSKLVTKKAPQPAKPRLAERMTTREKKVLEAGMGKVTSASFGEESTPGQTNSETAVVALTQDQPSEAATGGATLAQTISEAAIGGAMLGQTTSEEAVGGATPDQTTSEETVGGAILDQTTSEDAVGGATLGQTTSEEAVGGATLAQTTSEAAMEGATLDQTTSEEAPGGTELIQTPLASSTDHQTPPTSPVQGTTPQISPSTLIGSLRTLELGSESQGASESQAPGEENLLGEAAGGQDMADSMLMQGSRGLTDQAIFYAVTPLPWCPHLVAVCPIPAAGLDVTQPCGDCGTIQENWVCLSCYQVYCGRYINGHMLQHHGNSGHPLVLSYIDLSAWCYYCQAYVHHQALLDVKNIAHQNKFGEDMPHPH
Description: Experimental Example 1: Fluorescence-based enzyme activity assay
In order to measure the inhibitory effect of the compounds on the activity of histone deacetylase 6 (HDAC6), an enzyme activity assay was performed to evaluate the enzyme activity by reacting the human HDAC6 enzyme with a substrate to which a fluorescent peptide of p53 residues 379-382 was attached. The test compounds were dissolved in 100% DMSO at a concentration of 10 mM to prepare a stock solution. A starting concentration of 30 µM was prepared from the stock solution, followed by 1/3 serial dilutions to prepare the test buffer solution. Trichostatin A (TSA)-which is the reference compound used to confirm the validity of the experiment-was serially diluted by 1/3 with the test buffer solution, starting from the highest concentration of 1 µM. To react the test compounds and TSA prepared in the test buffer with the HDAC6 enzyme, they were dispensed into a 96-well black plate and spin-down of the plate was performed. Then, the reaction was carried out at room temperature for 10 minutes. After 10 minutes, the substrate was dispensed, and the plate was sealed. The reaction was carried out at 30°C for 1 hour under light-blocking conditions. Fluorescence values were measured using a plate reader (wavelength: excitation/emission = 360/460 nm). The fluorescence measurements were normalized to the HDAC6 enzyme-treated group as 100% and the untreated group as 0%, respectively. […]

[2] = biological target: T2, Human mGluR5 (Homo sapiens, UniProt P41594); assay: Fluorescence-based Ca2+ mobilization assay; details: HEK293 cell line permanently overexpressing mGluR5, Ca2+ level change induced by L-glutamate at EC80 concentration, FLIPR Tetra
T2 construct: expressed in transfected cells; host or cells: HEK293
Description: Experimental Example 2: Fluorescence-based Ca^2+ mobilization assay
In order to measure the activity of the antagonist on the mGluR5, an experiment was carried out to check the change in the intracellular Ca^2+ level using the HEK293 cell line permanently overexpressing the mGluR5. The cells in the cell culture medium were aliquoted into a 384-well plate coated with poly-D-lysine and cultured in a 37°C incubator supplied with 5% CO2. The next day, the medium was removed and a dye loading buffer-in which a reagent capable of measuring Ca^2+ was dissolved-was added, and then incubated at 37°C for 60 minutes. The test compounds were dissolved in 100% DMSO at a final concentration of 10 mM to make a stock solution. The starting concentration of 10 µM was prepared from the stock solution, followed by serial dilutions to prepare working solutions (test compound working solutions). The test compound working solutions were added to the cells that were incubated in the dye loading buffer, which were maintained for 30 minutes at room temperature in a light-shielding state before measurement. The Ca^2+ level change induced by L-glutamate at EC80 concentration was measured for 2 minutes using FLIPR Tetra (MDS Analytical Technologies). The fluorescent Ca^2+ signal values in the presence of the test compounds were normalized to the fluorescent signal elicited by EC80 concentration of L-glutamate as 100% and that elicited by vehicle as 0% to estimate % inhibition of the test compounds. […]

T2 sequence (P41594 21-1212): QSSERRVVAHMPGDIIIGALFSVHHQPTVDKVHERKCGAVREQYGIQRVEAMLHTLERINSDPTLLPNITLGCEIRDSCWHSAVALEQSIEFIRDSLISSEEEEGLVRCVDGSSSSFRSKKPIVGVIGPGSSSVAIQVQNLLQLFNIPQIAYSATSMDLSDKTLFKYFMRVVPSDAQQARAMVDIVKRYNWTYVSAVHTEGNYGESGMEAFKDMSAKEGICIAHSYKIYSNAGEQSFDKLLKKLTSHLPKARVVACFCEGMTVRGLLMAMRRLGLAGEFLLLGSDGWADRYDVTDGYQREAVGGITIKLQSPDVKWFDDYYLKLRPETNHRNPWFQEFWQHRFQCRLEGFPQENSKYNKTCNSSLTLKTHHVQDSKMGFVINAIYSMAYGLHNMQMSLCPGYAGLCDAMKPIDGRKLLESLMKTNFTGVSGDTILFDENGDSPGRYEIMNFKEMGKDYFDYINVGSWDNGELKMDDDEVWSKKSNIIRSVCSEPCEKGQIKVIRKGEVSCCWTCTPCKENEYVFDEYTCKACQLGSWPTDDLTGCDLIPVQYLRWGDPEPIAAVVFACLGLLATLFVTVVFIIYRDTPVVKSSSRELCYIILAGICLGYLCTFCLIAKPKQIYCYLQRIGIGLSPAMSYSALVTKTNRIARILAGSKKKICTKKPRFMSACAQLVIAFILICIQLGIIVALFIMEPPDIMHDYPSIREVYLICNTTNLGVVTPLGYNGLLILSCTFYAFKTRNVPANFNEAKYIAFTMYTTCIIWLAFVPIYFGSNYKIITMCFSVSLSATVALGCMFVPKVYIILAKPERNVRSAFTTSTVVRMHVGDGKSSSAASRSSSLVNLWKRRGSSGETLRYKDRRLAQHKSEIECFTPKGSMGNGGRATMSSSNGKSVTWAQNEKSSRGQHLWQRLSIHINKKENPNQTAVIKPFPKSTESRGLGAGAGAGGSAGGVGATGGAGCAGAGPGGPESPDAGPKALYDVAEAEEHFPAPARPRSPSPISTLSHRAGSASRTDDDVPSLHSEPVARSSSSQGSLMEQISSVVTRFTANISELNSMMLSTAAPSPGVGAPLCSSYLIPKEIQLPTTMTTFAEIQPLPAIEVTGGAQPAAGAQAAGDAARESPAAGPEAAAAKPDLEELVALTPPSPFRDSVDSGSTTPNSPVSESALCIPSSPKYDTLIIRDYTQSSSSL

Compound	IC50 [1] [µM]	IC50 [2] [µM]
Cc1cccc(C#CCn2ccc(-c3nnc(C(F)F)o3)cc2=O)n1 [Example 24, 4-(5-(difluoromethyl)-1,3,4-oxadiazol-2-yl)-1-(3-(6-methylpyridin-2-yl)prop-2-yn-1-yl)pyridin-2(1H)-one]	< 0.1	0.5 to 1
O=c1cc(-c2nnc(C(F)F)o2)ccn1CC#Cc1cccc(Cl)c1 [Example 15, 1-(3-(3-chlorophenyl)prop-2-yn-1-yl)-4-(5-(difluoromethyl)-1,3,4-oxadiazol-2-yl)pyridin-2(1H)-one]	< 0.1	0.5 to 1
O=c1cc(-c2nnc(C(F)F)o2)ccn1CC#Cc1cccc(C(F)(F)F)c1 [Example 19, 4-(5-(difluoromethyl)-1,3,4-oxadiazol-2-yl)-1-(3-(3-(trifluoromethyl)phenyl)prop-2-yn-1-yl)pyridin-2(1H)-one]	0.1 to 0.5	1 to 2
O=c1cc(-c2nnc(C(F)F)o2)ccn1CC#Cc1cccc(Br)c1 [Example 25, 1-(3-(3-bromophenyl)prop-2-yn-1-yl)-4-(5-(difluoromethyl)-1,3,4-oxadiazol-2-yl)pyridin-2(1H)-one]	0.1 to 0.5	0.5 to 1
O=c1cc(-c2nnc(C(F)F)o2)ccn1CC#Cc1cccc(C(F)F)c1 [Example 26, 4-(5-(difluoromethyl)-1,3,4-oxadiazol-2-yl)-1-(3-(3-(difluoromethyl)phenyl)prop-2-yn-1-yl)pyridin-2(1H)-one]		0.5 to 1
CCC(C#Cc1cccc(Cl)c1)Oc1cc(-c2nnc(C(F)F)o2)ccn1 (stereo not drawn) [Example 44]		1 to 2
Cc1cccc(C#CCn2ccc(-c3nnc(C(F)F)o3)cc2=O)c1 [Example 18, 4-(5-(difluoromethyl)-1,3,4-oxadiazol-2-yl)-1-(3-(m-tolyl)prop-2-yn-1-yl)pyridin-2(1H)-one]	< 0.1	1 to 2
O=c1cc(-c2noc(C(F)(F)F)n2)ccn1CC#Cc1cccc(Cl)c1 [Example 7, 1-(3-(3-chlorophenyl)prop-2-yn-1-yl)-4-(5-(trifluoromethyl)-1,2,4-oxadiazol-3-yl)pyridine-2(1H)-one]	0.5 to 1	1 to 2
O=c1cc(-c2nnc(C(F)F)o2)ccn1CC#Cc1cccc(OC(F)(F)F)c1 [Example 20, 4-(5-(difluoromethyl)-1,3,4-oxadiazol-2-yl)-1-(3-(3-(trifluoromethoxy)phenyl)prop-2-yn-1-yl)pyridin-2(1H)-one]	0.1 to 0.5	1 to 2
Cc1ccc(C#CCn2ccc(-c3nnc(C(F)F)o3)cc2=O)cc1 [Example 17, 4-(5-(difluoromethyl)-1,3,4-oxadiazol-2-yl)-1-(3-(p-tolyl)prop-2-yn-1-yl)pyridin-2(1H)-one]	0.1 to 0.5	1 to 2
O=c1cc(-c2nnc(C(F)F)o2)ccn1CC#Cc1ccnc(Cl)c1 [Example 23, 1-(3-(2-chloropyridin-4-yl)prop-2-yn-1-yl)-4-(5-(difluoromethyl)-1,3,4-oxadiazol-2-yl)pyridin-2(1H)-one]	< 0.1	1 to 2

Further lines, results first:

IC50 [1] [µM]	IC50 [2] [µM]	Compound
0.5 to 1	1 to 2	O=c1cc(-c2nnc(C(F)(F)F)o2)ccn1CC#Cc1cccc(Cl)c1 [Example 28, 1-(3-(3-chlorophenyl)prop-2-yn-1-yl)-4-(5-(trifluoromethyl)-1,3,4-oxadiazol-2-yl)pyridin-2(1H)-one]
0.1 to 0.5	0.5 to 1	Cc1cc(-c2nnc(C(F)F)o2)cc(=O)n1CC#Cc1cccc(Cl)c1 [Example 45, 1-(3-(3-chlorophenyl)prop-2-yn-1-yl)-4-(5-(difluoromethyl)-1,3,4-oxadiazol-2-yl)-6-methylpyridin-2(1H)-one]
	0.5 to 1	O=c1cc(-c2nnc(C(F)F)o2)c(Br)cn1CC#Cc1cccc(Cl)c1 [Example 46, 5-bromo-1-(3-(3-chlorophenyl)prop-2-yn-1-yl)-4-(5-(difluoromethyl)-1,3,4-oxadiazol-2-yl)pyridin-2(1H)-one]
< 0.1	0.5 to 1	N#Cc1cccc(C#CCn2ccc(-c3nnc(C(F)F)o3)cc2=O)c1 [Example 31, 3-(3-(4-(5-(difluoromethyl)-1,3,4-oxadiazol-2-yl)-2-oxopyridin-1(2H)-yl)prop-1-yn-1-yl)benzonitrile]
0.5 to 1	0.5 to 1	O=c1cc(-c2noc(C(F)F)n2)ccn1CC#Cc1cccc(Cl)c1 [Example 30, 1-(3-(3-chlorophenyl)prop-2-yn-1-yl)-4-(5-(difluoromethyl)-1,2,4-oxadiazol-3-yl)pyridin-2(1H)-one]
0.1 to 0.5	1 to 2	O=c1cc(-c2nnc(C(F)F)o2)ccn1CC#Cc1cc(Cl)ccc1F [Example 36, 1-(3-(5-chloro-2-fluorophenyl)prop-2-yn-1-yl)-4-(5-(difluoromethyl)-1,3,4-oxadiazol-2-yl)pyridin-2(1H)-one]
< 0.1	1 to 2	O=c1cc(-c2nnc(C(F)F)o2)ccn1CC#Cc1cccc(OC(F)F)c1 [Example 27, 1-(3-(3-(difluoromethoxy)phenyl)prop-2-yn-1-yl)-4-(5-(difluoromethyl)-1,3,4-oxadiazol-2-yl)pyridin-2(1H)-one]
